Results on 22 molecules are retold here after patent US9150545B2, “Carboxamide compounds and their use as calpain inhibitors V” (ABBVIE DEUTSCHLAND GMBH & CO. KG, priority 2012, dated 2015).

For this test, the target named is T1, calpain-I isolated from human erythrocytes (Homo sapiens, UniProt P07384).
T1 construct: calpain-I—isolated from human erythrocytes (Calbiochem #208713); purchased Calbiochem 208713; host or cells: human erythrocytes (native tissue isolate)
T1 sequence (P07384 1-714): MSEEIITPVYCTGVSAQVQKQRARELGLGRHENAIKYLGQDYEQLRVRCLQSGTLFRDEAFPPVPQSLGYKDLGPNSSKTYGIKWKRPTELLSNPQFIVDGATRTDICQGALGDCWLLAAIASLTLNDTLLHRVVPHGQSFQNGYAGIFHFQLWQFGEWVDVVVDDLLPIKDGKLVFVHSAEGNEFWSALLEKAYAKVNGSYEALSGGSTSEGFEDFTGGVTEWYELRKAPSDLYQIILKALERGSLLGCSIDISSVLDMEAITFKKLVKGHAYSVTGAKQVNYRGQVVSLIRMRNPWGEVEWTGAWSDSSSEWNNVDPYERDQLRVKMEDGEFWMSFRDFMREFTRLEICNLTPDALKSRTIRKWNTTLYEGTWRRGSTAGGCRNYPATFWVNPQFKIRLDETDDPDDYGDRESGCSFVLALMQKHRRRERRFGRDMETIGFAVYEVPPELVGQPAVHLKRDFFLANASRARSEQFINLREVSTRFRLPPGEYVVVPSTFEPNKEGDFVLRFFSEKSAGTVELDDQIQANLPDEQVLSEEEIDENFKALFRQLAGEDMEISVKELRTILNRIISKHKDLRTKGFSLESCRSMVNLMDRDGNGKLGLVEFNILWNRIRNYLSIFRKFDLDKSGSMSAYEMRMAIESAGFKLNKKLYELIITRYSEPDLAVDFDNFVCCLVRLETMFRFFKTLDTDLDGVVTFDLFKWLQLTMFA
T1 sequence (P04632 1-268 partner): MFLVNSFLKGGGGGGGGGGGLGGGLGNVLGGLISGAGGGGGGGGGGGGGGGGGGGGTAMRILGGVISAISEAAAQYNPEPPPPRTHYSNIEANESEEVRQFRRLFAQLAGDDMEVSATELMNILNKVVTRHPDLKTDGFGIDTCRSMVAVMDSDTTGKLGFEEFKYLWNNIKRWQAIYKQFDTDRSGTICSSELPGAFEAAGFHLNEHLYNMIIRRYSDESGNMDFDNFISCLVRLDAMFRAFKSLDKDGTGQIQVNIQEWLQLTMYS
Put plainly: Calpain I kinetic fluorescence enzyme inhibition assay. It is filed as biochemical. To be noted: apparent Ki from IC50 by Cheng-Prussoff. On the procedure:
Testing for blockade of the corresponding enzymic activities was carried out by means of kinetic fluorescence assays (excitation 390 nm, emission 460 nm).
Apparent Ki values were calculated from the experimentally determined IC50 values by the Cheng-Prussoff relation assuming a reversible competitive enzyme inhibition.
20 nM calpain-I—isolated from human erythrocytes (Calbiochem #208713), 100 μM Suc-Leu-Tyr-AMC (Bachem #I-1355) as substrate in buffer with 62 mM imidazole, 0.3 mM CaCl2, 0.10% CHAPS, 0.05% BSA, 1 mM DTT at pH 7.3 and room temperature.

Where a name gives a salt, the structure may show the parent alone.

On to `NC(=O)C(=O)C(Cc1ccccc1)NC(=O)c1cccnc1-n1ccc(CN2Cc3ccc(C(F)(F)F)cc3C2)n1` (stereo not shown) [Example 30, N-(4-Amino-3,4-dioxo-1-phenylbutan-2-yl)-2-(3-((5-(trifluoromethyl)isoindolin-2-yl)methyl)-1H-pyrazol-1-yl)nicotinamide trifluoroacetate], for which the Ki was less than 250 nM.

In the case of `NC(=O)C(=O)C(Cc1ccccc1)NC(=O)c1cccnc1-n1cc2c(n1)CCN(Cc1ccccc1)C2` (stereo not shown) [Example 40, N-(4-Amino-3,4-dioxo-1-phenylbutan-2-yl)-2-(5-benzyl-4,5,6,7-tetrahydro-2H-pyrazolo[4,3-c]pyridin-2-yl)nicotinamide], the Ki was less than 250 nM.

`CN(Cc1ccn(-c2ncccc2C(=O)NC(Cc2ccccc2)C(=O)C(N)=O)n1)C1CCCCC1` (stereo not shown) [Example 20, N-(4-Amino-3,4-dioxo-1-phenylbutan-2-yl)-2-(3-((cyclohexyl(methyl)amino)methyl)-1H-pyrazol-1-yl)nicotinamide trifluoroacetate]: the Ki is less than 250 nM.

As to `NC(=O)C(=O)C(Cc1ccccc1)NC(=O)c1cccnc1-n1cc2c(n1)CCN(Cc1ccccc1)C2` (stereo not shown) [Example 4, N-(4-Amino-3,4-dioxo-1-phenylbutan-2-yl)-2-(5-benzyl-4,5,6,7-tetrahydro-2H-pyrazolo[4,3-c]pyridin-2-yl)nicotinamide], the Ki was less than 250 nM.

Turning to `NC(=O)C(=O)C(Cc1ccccc1)NC(=O)c1cccnc1-n1ccc(CN2CCN(c3ccccc3)CC2)n1` (stereo not shown) [Example 32, N-(4-Amino-3,4-dioxo-1-phenylbutan-2-yl)-2-(3-((4-phenylpiperazin-1-yl)methyl)-1H-pyrazol-1-yl)nicotinamide trifluoroacetate], the Ki is less than 250 nM.

Regarding `NC(=O)C(=O)C(Cc1ccccc1)NC(=O)c1cccnc1-n1ccc(CN2Cc3ccc(F)cc3C2)n1` (stereo not shown) [Example 31, N-(4-Amino-3,4-dioxo-1-phenylbutan-2-yl)-2-(3-((5-fluoroisoindolin-2-yl)methyl)-1H-pyrazol-1-yl)nicotinamide trifluoroacetate], the Ki is less than 250 nM.

On to `NC(=O)C(=O)C(Cc1ccccc1)NC(=O)c1cccnc1-n1cc2c(n1)CCNC2` (stereo not shown) [Example 42, N-(4-Amino-3,4-dioxo-1-phenylbutan-2-yl)-2-(4,5,6,7-tetrahydro-2H-pyrazolo[4,3-c]pyridin-2-yl)nicotinamide hydrochloride], for which the Ki was less than 250 nM.

For `NC(=O)C(=O)C(Cc1ccccc1)NC(=O)c1cccnc1-n1ccc(CN2CCOC(c3ccccc3)C2)n1` (stereo not shown) [Example 9, N-(4-Amino-3,4-dioxo-1-phenylbutan-2-yl)-2-(3-((2-phenylmorpholino)methyl)-1H-pyrazol-1-yl)nicotinamide trifluoroacetate], the Ki is less than 250 nM.

Take `NC(=O)C(=O)C(Cc1ccccc1)NC(=O)c1cccnc1-n1ccc(CN2CCC(c3ccccc3)CC2)n1` (stereo not shown) [Example 5, N-(4-Amino-3,4-dioxo-1-phenylbutan-2-yl)-2-(3-((4-phenylpiperidin-1-yl)methyl)-1H-pyrazol-1-yl)nicotinamide]: the Ki is less than 250 nM.

As to `NC(=O)C(=O)C(Cc1ccccc1)NC(=O)c1cccnc1-n1ccc(CN2CCc3ccccc32)n1` (stereo not shown) [Example 15, N-(4-Amino-3,4-dioxo-1-phenylbutan-2-yl)-2-(3-(indolin-1-ylmethyl)-1H-pyrazol-1-yl)nicotinamide], the Ki was less than 250 nM.

`NC(=O)C(=O)C(Cc1ccccc1)NC(=O)c1cccnc1-n1ccc(CN2CCC(C(F)(F)F)CC2)n1` (stereo not shown) [Example 12, N-(4-Amino-3,4-dioxo-1-phenylbutan-2-yl)-2-(3-((4-(trifluoromethyl)piperidin-1-yl)methyl)-1H-pyrazol-1-yl)nicotinamide trifluoroacetate]: the Ki was less than 250 nM.

Consider `NC(=O)C(=O)C(Cc1ccccc1)NC(=O)c1cccnc1-n1ccc(CN2CCS(=O)(=O)CC2)n1` (stereo not shown) [Example 34, N-(4-Amino-3,4-dioxo-1-phenyl-2-butanyl)-2-{3-[(1,1-dioxido-4-thiomorpholinyl)methyl]-1H-pyrazol-1-yl}nicotinamide trifluoroacetate], for which the Ki is less than 250 nM.

On to `NC(=O)C(=O)C(Cc1ccccc1)NC(=O)c1cccnc1-n1ccc(CN2CC3CC(F)(F)CC3C2)n1` (stereo not shown) [Example 13, N-(4-amino-3,4-dioxo-1-phenyl-2-butanyl)-2-{3-[(5,5-difluorohexahydrocyclopenta[c]pyrrol-2(1H)-yl)methyl]-1H-pyrazol-1-yl}nicotinamide trifluoroacetate], for which the Ki was less than 250 nM.

`O=C(NC1CC1)C(=O)C(Cc1ccccc1)NC(=O)c1cccnc1-n1ccc(CN2Cc3ccccc3C2)n1` (stereo not shown) [Example C2, reference compound]: the Ki fell in the range of 800 to 1000 nM.

For the molecule `NC(=O)C(=O)C(Cc1ccccc1)NC(=O)c1cccnc1-n1ccc(CNc2ccccc2)n1` (stereo not shown) [Example 28, N-(4-Amino-3,4-dioxo-1-phenylbutan-2-yl)-2-(3-((phenylamino)methyl)-1H-pyrazol-1-yl)nicotinamide], the Ki was less than 250 nM.

For the molecule `NC(=O)C(=O)C(Cc1ccccc1)NC(=O)c1cccnc1-n1ccc(CN2Cc3ccccc3C2)n1` (stereo not shown) [Example 19, N-(4-Amino-3,4-dioxo-1-phenylbutan-2-yl)-2-(3-(isoindolin-2-ylmethyl)-1H-pyrazol-1-yl)nicotinamide], the Ki is less than 250 nM.

Turning to `CCN(CC)Cc1ccn(-c2ncccc2C(=O)NC(Cc2ccccc2)C(=O)C(N)=O)n1` (stereo not shown) [Example 18, N-(4-Amino-3,4-dioxo-1-phenylbutan-2-yl)-2-(3-((diethylamino)methyl)-1H-pyrazol-1-yl)nicotinamide trifluoroacetate], the Ki lay within 250 to 400 nM.

Turning to `NC(=O)C(=O)C(Cc1ccccc1)NC(=O)c1cccnc1-n1ccc(CN2CCOC3CCCCC32)n1` (single isomer, unassigned) [Example 8b, 2-(3-((2H-Benzo[b][1,4]oxazin-4(3H,4aH,5H,6H,7H,8H,8aH)-yl)methyl)-1H-pyrazol-1-yl)-N-(4-amino-3,4-dioxo-1-phenylbutan-2-yl)nicotinamide trifluoroacetate], the Ki was less than 250 nM.

Regarding `CC(c1ccn(-c2ncccc2C(=O)NC(Cc2ccccc2)C(=O)C(N)=O)n1)N1Cc2ccccc2C1` (stereo not shown) [Example 35, N-(4-Amino-3,4-dioxo-1-phenylbutan-2-yl)-2-(3-(1-(isoindolin-2-yl)ethyl)-1H-pyrazol-1-yl)nicotinamide trifluoroacetate], the Ki is less than 250 nM.

Take `NC(=O)C(=O)C(Cc1ccccc1)NC(=O)c1cccnc1-n1ccc(CN2CCC(F)(F)CC2)n1` (stereo not shown) [Example 3, N-(4-Amino-3,4-dioxo-1-phenylbutan-2-yl)-2-(3-((4,4-difluoropiperidin-1-yl)methyl)-1H-pyrazol-1-yl)nicotinamide trifluoroacetate]: the Ki is less than 250 nM.

Take `NC(=O)C(=O)C(Cc1ccccc1)NC(=O)c1cccnc1-n1cc2c(n1)CNC2` (stereo not shown) [Example 44, N-(4-Amino-3,4-dioxo-1-phenyl-2-butanyl)-2-(5,6-dihydropyrrolo[3,4-c]pyrazol-2(4H)-yl)nicotinamide hydrochloride]: the Ki was less than 250 nM.

Regarding `NC(=O)C(=O)C(Cc1ccccc1)NC(=O)c1cccnc1-n1ccc(CN2CCc3ccccc3C2)n1` (stereo not shown) [Example 22, N-(4-Amino-3,4-dioxo-1-phenylbutan-2-yl)-2-(3-((3,4-dihydroisoquinolin-2(1H)-yl)methyl)-1H-pyrazol-1-yl)nicotinamide], the Ki is less than 250 nM.
